Results published in ChEMBL document CHEMBL1201862, “PubChem BioAssay data set” (2004).
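Compound exposure: 48 hours, 5 concentrations, 96-well plates. GI50 is the concentration that inhibits growth by half.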 The source made the active and inactive calls. No stated cut-off is given here; in the data, active = GI50 up to about 1.1 µM and inactive = higher.

Assays:
Test in all cases: DTP human tumour cell line panel, 48 h
COLO 205 = tested on: COLO 205
OVCAR-5 = tested on: OVCAR-5
SK-MEL-28 = tested on: SK-MEL-28
Malme-3M = tested on: Malme-3M
SW-620 = tested on: SW-620
MDA-MB-435 = tested on: MDA-MB-435
NCI/ADR-RES = tested on: NCI/ADR-RES
EKVX = tested on: EKVX
NCI-H460 = tested on: NCI-H460
SF-295 = tested on: SF-295
UO-31 = tested on: UO-31
SK-MEL-2 = tested on: SK-MEL-2
UACC-62 = tested on: UACC-62
SF-539 = tested on: SF-539
KM12 = tested on: KM12
K562 = tested on: K562
OVCAR-8 = tested on: OVCAR-8
MOLT-4 = tested on: MOLT-4
MDA-N = tested on: MDA-N
Hs-578T = tested on: Hs-578T
HL-60 = tested on: HL-60
BT-549 = tested on: BT-549
HOP-62 = tested on: HOP-62
CCRF-CEM = tested on: CCRF-CEM
SK-OV-3 = tested on: SK-OV-3
786-0 = tested on: 786-0
OVCAR-4 = tested on: OVCAR-4
HCC 2998 = tested on: HCC 2998
PC-3 = tested on: PC-3
HCT-116 = tested on: HCT-116
UACC-257 = tested on: UACC-257
HOP-92 = tested on: HOP-92
NCI-H226 = tested on: NCI-H226
T47D = tested on: T47D
HT-29 = tested on: HT-29
M14 = tested on: M14
HCT-15 = tested on: HCT-15
SN12C = tested on: SN12C
U-251 = tested on: U-251
SF-268 = tested on: SF-268
SNB-19 = tested on: SNB-19
CAKI-1 = tested on: CAKI-1
TK-10 = tested on: TK-10
LOX IMVI = tested on: LOX IMVI
NCI-H23 = tested on: NCI-H23
OVCAR-3 = tested on: OVCAR-3
RPMI-8226 = tested on: RPMI-8226
MCF7 = tested on: MCF7
IGROV-1 = tested on: IGROV-1
SR = tested on: SR
RXF 393 = tested on: RXF 393
A498 = tested on: A498
ACHN = tested on: ACHN
DU-145 = tested on: DU-145
MDA-MB-231 = tested on: MDA-MB-231
SNB-75 = tested on: SNB-75
A549 = tested on: A549
SK-MEL-5 = tested on: SK-MEL-5
NCI-H522 = tested on: NCI-H522

`COc1ccc(C2=C(N)c3ncccc3C2=O)cc1` was tested, and the GI50 (COLO 205) was 72.6 µM (inactive), the GI50 (OVCAR-5) was > 100 µM (inactive) and the GI50 (SK-MEL-28) was > 100 µM (inactive). The GI50 (Malme-3M) was 43.9 µM (inactive), the GI50 (SW-620) was > 100 µM (inactive) and the GI50 (MDA-MB-435) was > 100 µM (inactive). For the same compound, the GI50 (NCI/ADR-RES) was > 100 µM (inactive), the GI50 (EKVX) was 45 µM (inactive) and the GI50 (NCI-H460) was > 100 µM (inactive). For the same compound, the GI50 (SF-295) was > 100 µM (inactive), the GI50 (UO-31) was > 100 µM (inactive) and the GI50 (SK-MEL-2) was > 100 µM (inactive). The GI50 (UACC-62) was 60.8 µM (inactive), the GI50 (SF-539) was > 100 µM (inactive) and the GI50 (KM12) was > 100 µM (inactive). The GI50 (K562) was > 100 µM (inactive), the GI50 (OVCAR-8) was > 100 µM (inactive) and the GI50 (MOLT-4) was > 100 µM (inactive). The GI50 (MDA-N) was > 100 µM (inactive), the GI50 (Hs-578T) was 18.9 µM (inactive) and the GI50 (HL-60) was 93.8 µM (inactive). For the same compound, the GI50 (BT-549) was > 100 µM (inactive), the GI50 (HOP-62) was > 100 µM (inactive) and the GI50 (CCRF-CEM) was > 100 µM (inactive). The GI50 (SK-OV-3) was > 100 µM (inactive), the GI50 (786-0) was > 100 µM (inactive) and the GI50 (OVCAR-4) was > 100 µM (inactive). For the same compound, the GI50 (HCC 2998) was > 100 µM (inactive), the GI50 (PC-3) was > 100 µM (inactive) and the GI50 (HCT-116) was > 100 µM (inactive). For the same compound, the GI50 (UACC-257) was > 10 µM (inactive), the GI50 (HOP-92) was > 10 µM (inactive) and the GI50 (NCI-H226) was > 100 µM (inactive). The GI50 (T47D) was > 100 µM (inactive), the GI50 (HT-29) was > 100 µM (inactive) and the GI50 (M14) was > 100 µM (inactive). The GI50 (HCT-15) was greater than 100 µM, the GI50 (SN12C) was > 100 µM (inactive) and the GI50 (U-251) was > 100 µM (inactive). For the same compound, the GI50 (SF-268) was > 100 µM (inactive), the GI50 (SNB-19) was > 100 µM (inactive) and the GI50 (CAKI-1) was > 100 µM (inactive). The GI50 (TK-10) was > 10 µM (inactive), the GI50 (LOX IMVI) was > 100 µM (inactive) and the GI50 (NCI-H23) was > 100 µM (inactive). For the same compound, the GI50 (OVCAR-3) was 91.2 µM (inactive), the GI50 (RPMI-8226) was > 100 µM (inactive) and the GI50 (MCF7) was > 100 µM (inactive). The GI50 (IGROV-1) was > 100 µM (inactive), the GI50 (SR) was 69.7 µM (inactive) and the GI50 (RXF 393) was 24.7 µM (inactive). The GI50 (A498) was > 100 µM (inactive), the GI50 (ACHN) was > 10 µM (inactive) and the GI50 (DU-145) was > 100 µM (inactive). The GI50 (MDA-MB-231) was > 100 µM (inactive) and the GI50 (SNB-75) was > 100 µM (inactive).
`O=C1Nc2ccccc2/C1=N/NC(=O)C(O)(c1ccccc1)c1ccccc1` was tested, and the GI50 (COLO 205) was 18 µM (inactive), the GI50 (OVCAR-5) was 17.2 µM (inactive) and the GI50 (SK-MEL-28) was 17.7 µM (inactive). The GI50 (Malme-3M) was 20.7 µM (inactive), the GI50 (SW-620) was 17.1 µM (inactive) and the GI50 (MDA-MB-435) was 17 µM (inactive). For the same compound, the GI50 (NCI/ADR-RES) was 23.9 µM (inactive), the GI50 (EKVX) was 30.5 µM (inactive) and the GI50 (NCI-H460) was 17.2 µM (inactive). For the same compound, the GI50 (SF-295) was 18.8 µM (inactive), the GI50 (UO-31) was 15.6 µM (inactive) and the GI50 (SK-MEL-2) was 17 µM (inactive). For the same compound, the GI50 (UACC-62) was 15.8 µM (inactive), the GI50 (SF-539) was 15.8 µM (inactive) and the GI50 (A549) was 17.1 µM (inactive). For the same compound, the GI50 (KM12) was 17.4 µM (inactive), the GI50 (K562) was 23.2 µM (inactive) and the GI50 (OVCAR-8) was 24.7 µM (inactive). The GI50 (MOLT-4) was 15.2 µM (inactive), the GI50 (MDA-N) was 16.9 µM (inactive) and the GI50 (Hs-578T) was 25.6 µM (inactive). The GI50 (HL-60) was 17.4 µM (inactive), the GI50 (BT-549) was 14.1 µM (inactive) and the GI50 (CCRF-CEM) was 26.1 µM (inactive). For the same compound, the GI50 (SK-OV-3) was 22.9 µM (inactive), the GI50 (786-0) was 35.4 µM (inactive) and the GI50 (OVCAR-4) was 24.2 µM (inactive). For the same compound, the GI50 (HCC 2998) was 14.6 µM (inactive), the GI50 (PC-3) was 16.6 µM (inactive) and the GI50 (HCT-116) was 22.9 µM (inactive). For the same compound, the GI50 (UACC-257) was 22 µM (inactive), the GI50 (HOP-92) was 18.9 µM (inactive) and the GI50 (NCI-H226) was 20.6 µM (inactive). For the same compound, the GI50 (T47D) was 23.8 µM (inactive), the GI50 (HT-29) was 19.5 µM (inactive) and the GI50 (M14) was 16.7 µM (inactive). For the same compound, the GI50 (HCT-15) was 16.4 µM, the GI50 (U-251) was 18.2 µM (inactive) and the GI50 (SF-268) was 27.1 µM (inactive). The GI50 (SNB-19) was 16.7 µM (inactive), the GI50 (CAKI-1) was 31.7 µM (inactive) and the GI50 (SK-MEL-5) was 16.2 µM (inactive). For the same compound, the GI50 (TK-10) was 28.8 µM (inactive), the GI50 (LOX IMVI) was 16.7 µM (inactive) and the GI50 (NCI-H23) was 16.1 µM (inactive). The GI50 (OVCAR-3) was 20 µM (inactive), the GI50 (RPMI-8226) was 19.6 µM (inactive) and the GI50 (MCF7) was 22.4 µM (inactive). For the same compound, the GI50 (IGROV-1) was 19.6 µM (inactive), the GI50 (SR) was 21.2 µM (inactive) and the GI50 (RXF 393) was 14.6 µM (inactive). The GI50 (A498) was 18.3 µM (inactive), the GI50 (ACHN) was 29.4 µM (inactive) and the GI50 (DU-145) was 25.1 µM (inactive). For the same compound, the GI50 (MDA-MB-231) was 18.1 µM (inactive) and the GI50 (SNB-75) was 21.1 µM (inactive).
`c1ccc2c(Nc3ncco3)cccc2c1` was tested, and the GI50 (COLO 205) was > 10 µM (inactive), the GI50 (OVCAR-5) was > 10 µM (inactive) and the GI50 (SK-MEL-28) was > 10 µM (inactive). The GI50 (Malme-3M) was > 10 µM (inactive), the GI50 (SW-620) was > 10 µM (inactive) and the GI50 (MDA-MB-435) was > 10 µM (inactive). For the same compound, the GI50 (NCI/ADR-RES) was > 10 µM (inactive), the GI50 (EKVX) was > 10 µM (inactive) and the GI50 (NCI-H460) was > 10 µM (inactive). The GI50 (SF-295) was > 10 µM (inactive), the GI50 (UO-31) was > 10 µM (inactive) and the GI50 (NCI-H522) was > 10 µM (inactive). The GI50 (UACC-62) was > 10 µM (inactive), the GI50 (SF-539) was > 10 µM (inactive) and the GI50 (A549) was > 10 µM (inactive). The GI50 (KM12) was > 10 µM (inactive), the GI50 (K562) was > 10 µM (inactive) and the GI50 (OVCAR-8) was > 10 µM (inactive). For the same compound, the GI50 (MOLT-4) was > 10 µM (inactive), the GI50 (MDA-N) was > 10 µM (inactive) and the GI50 (Hs-578T) was > 10 µM (inactive). For the same compound, the GI50 (BT-549) was > 10 µM (inactive), the GI50 (HOP-62) was > 10 µM (inactive) and the GI50 (CCRF-CEM) was > 10 µM (inactive). For the same compound, the GI50 (SK-OV-3) was > 10 µM (inactive), the GI50 (786-0) was > 10 µM (inactive) and the GI50 (OVCAR-4) was > 10 µM (inactive). For the same compound, the GI50 (HCC 2998) was > 10 µM (inactive), the GI50 (PC-3) was > 10 µM (inactive) and the GI50 (HCT-116) was > 10 µM (inactive). For the same compound, the GI50 (UACC-257) was > 10 µM (inactive), the GI50 (HOP-92) was > 10 µM (inactive) and the GI50 (NCI-H226) was > 10 µM (inactive). The GI50 (T47D) was > 10 µM (inactive), the GI50 (HT-29) was > 10 µM (inactive) and the GI50 (M14) was > 10 µM (inactive). For the same compound, the GI50 (HCT-15) was greater than 10 µM, the GI50 (SN12C) was > 10 µM (inactive) and the GI50 (U-251) was > 10 µM (inactive). For the same compound, the GI50 (SF-268) was > 10 µM (inactive), the GI50 (SNB-19) was > 10 µM (inactive) and the GI50 (CAKI-1) was > 10 µM (inactive). The GI50 (SK-MEL-5) was > 10 µM (inactive), the GI50 (TK-10) was > 10 µM (inactive) and the GI50 (LOX IMVI) was > 10 µM (inactive). The GI50 (NCI-H23) was > 10 µM (inactive), the GI50 (OVCAR-3) was > 10 µM (inactive) and the GI50 (MCF7) was > 10 µM (inactive). The GI50 (IGROV-1) was > 10 µM (inactive), the GI50 (SR) was 0.001 µM (active) and the GI50 (A498) was > 10 µM (inactive). The GI50 (ACHN) was > 10 µM (inactive), the GI50 (DU-145) was > 10 µM (inactive) and the GI50 (MDA-MB-231) was > 10 µM (inactive). The GI50 (SNB-75) was > 10 µM (inactive).
